Test results reported in patent US11389536B2 (priority 2015, dated 2022).
Where two headings read alike, the source gives them in different places.

Assays:
[1] = system: non-tumor-bearing athymic nude mice
Experimental: Non-tumor-bearing athymic nude mice were exposed to fractionated doses of 30 Gy radiation (weekly administration of 5 Gy) in the presence or absence of twice weekly intravenous (i.v.) injections of Ce02 or intraperitoneal (i.p.) injections of Amifostine 30 min prior to radiation. Amifostine is a free radical scavenger. […] Treatments continued for […] for a total dose of 30 Gy radiation. The mice were killed and necropsied only when they became moribund or the experiment was terminated. The weight and mortality of each mouse was measured throughout the experiment and median and percent survival was determined, as shown in FIG. 22E.

[2] = system: lungs of athymic nude mice; assay: Lung histology for radiation-induced pneumonitis and fibrosis (H&E, Masson's trichrome); type: in vivo; settings: irradiated lungs
Experimental: For the in vivo studies, athymic nude mice are housed in the specific pathogen-free (SPF) Cancer Research Institute animal facility which exceeds the national requirements for animal care, with two conventional mouse rooms, two nude mouse rooms, and one quarantine room. Radiation was administered using an IC160 X-ray cell culture and small animal irradiation system (Kimtron Inc., Woodbury, Conn., USA) located inside the animal facility. Nine weeks post radiation, the mice were sacrificed and the lungs were harvested and processed for hematoxylin and eosin (H&E) staining. For immunohistochemistry and hematoxylin and eosin-staining procedures, one part of the tumor tissue is formalin-fixed and paraffin-embedded and another part embedded in OCT compound (Miles, Inc., Elkhart, Ind.), rapidly frozen in liquid nitrogen, and stored at […] for sectioning. Immunofluorescence microscopy is performed using a 20× objective on an epifluorescence microscope equipped with narrow bandpass excitation filters mounted in a filter wheel (Ludl Electronic Products, Hawthorne, N.Y.).
To determine the degree of radiation-induced pneumonitis, the lungs were harvested and processed for histology and H&E staining (FIGS. 23A-23D) and the amount of fibrosis and collagen deposition, indicative of chronic lung conditions, was measured using Masson's trichrome stain (FIGS. 23E-23H).

## NCCCNCCSP(=O)(O)O [Amifostine]
[1]; agent alone, no radiation (Amifostine 150 mg/kg i.p.)
  median survival time: 119 days
[1]; athymic nude mice
  tolerability / toxicity to mice: highly toxic to the mice
[1]; combination with radiation (5 Gy fractions, total 30 Gy), CONPs 15 nM i.v. twice weekly, Amifostine i.p. 30 min prior to radiation
  median survival time: 81 days
[2]
  fibrosis and collagen deposition (Masson's Trichrome stain): fibrosis and collagen deposition were common
